Values joined by “and” are separate entries in the source; they are usually repeats but may differ in a detail not shown here. Equal values may be shown once.
Tested on: beagles
Experiment: 13-week repeated oral toxicity: hematological test
Assay type: in vivo, beagle
Procedure: Fasting was conducted the day before administration (blood test date, pre), the 4th week (day 29) after administration, the 8th week (day 57) after administration, and the 13th week (day 92) after administration, and when the remaining feed was present in the feed container 3 hours after feeding on the day of fasting, it was removed.
All subjects were fasted for 16 hours and measurements were then performed pre (before administration), 4 weeks (day 29) after administration, 8 weeks (day 57) after administration, and 13 weeks (day 92) after administration. Within 3 hours after 2 to 3 ml of blood collected from the jugular vein of each subject was injected into a CBC bottle containing EDTA, RBC, HGB, HCT, RBC indices (MCV, MCH, MCHC), and platelet count and WBC differential count were measured using an automatic hematometer.

[1] = G3 500 mg/kg, repeated administration for 13 weeks, female, group mean
[2] = G3 500 mg/kg, repeated administration for 13 weeks, female, individual animals
[3] = G3 500 mg/kg, repeated administration for 13 weeks, male, group mean
[4] = G3 500 mg/kg, repeated administration for 13 weeks, male, individual animals
[5] = G4 1,000 mg/kg group, female (F10-F12, Mean), before administration (day 0)
[6] = G4 1,000 mg/kg group, female (F10-F12, Mean), before administration (day 0), mean
[7] = G4 1,000 mg/kg group, male (M10-M12, Mean), before administration (day 0)
[8] = G4 1,000 mg/kg group, male (M10-M12, Mean), before administration (day 0), mean
[9] = G4 1,000 mg/kg, repeated administration for 13 weeks, female, group mean
[10] = G4 1,000 mg/kg, repeated administration for 13 weeks, female, individual animals
[11] = G4 1,000 mg/kg, repeated administration for 13 weeks, male, group mean
[12] = G4 1,000 mg/kg, repeated administration for 13 weeks, male, individual animals

CN1C(=O)NC(=O)C1O (stereo not drawn) [KBP-001, 5-hydroxy-1-methylimidazolidine-2,4-dione]
MCH [1]: 23.5 pg | MCHC [1]: 33.37 g/dL | MCV [1]: 70.2 fL | Retic [1]: 0.59% | WBC Differential Counting(%) Baso [1]: 0.43% | WBC Differential Counting(%) Eos [1]: 3.03% | WBC Differential Counting(%) Lymph [1]: 33.40% | WBC Differential Counting(%) Mono [1]: 4.37% | WBC Differential Counting(%) Neut [1]: 58.50% | HCT [2]: 42.0% and 49.4% and 52.6% | HGB [2]: 14.2 g/dL and 16.3 g/dL and 17.5 g/dL | MCH [2]: 23.8 pg and 23.9 pg and 22.7 pg | MCHC [2]: 33.7 g/dL and 33.1 g/dL and 33.3 g/dL | MCV [2]: 70.4 fL and 72 fL and 68.2 fL | Retic [2]: 0.84% and 0.40% and 0.53% | WBC Differential Counting(%) Baso [2]: 0.3% and 0.5% and 0.4% | WBC Differential Counting(%) Eos [2]: 3.2% and 2.8% and 3.1% | WBC Differential Counting(%) Lymph [2]: 37.9% and 30.3% and 32.0% | WBC Differential Counting(%) Mono [2]: 4.3% and 3.5% and 5.2% | WBC Differential Counting(%) Neut [2]: 62.4% | HCT [3]: 48.10% | HGB [3]: 16.27 g/dL | MCH [3]: 23.8 pg | MCHC [3]: 33.83 g/dL | MCV [3]: 70.4 fL | Retic [3]: 0.41% | WBC Differential Counting(%) Baso [3]: 1.10% | WBC Differential Counting(%) Eos [3]: 5.07% | WBC Differential Counting(%) Lymph [3]: 30.00% | WBC Differential Counting(%) Mono [3]: 7.23% | WBC Differential Counting(%) Neut [3]: 55.697% | HCT [4]: 42.2% and 49.5% and 52.6% | HGB [4]: 14.2 g/dL and 16.9 g/dL and 17.7 g/dL | MCH [4]: 23.5 pg and 24.4 pg and 23.6 pg | MCHC [4]: 33.7 g/dl (2×) and 34.1 g/dl | MCV [4]: 70 fL and 71.5 fL and 69.9 fL | Retic [4]: 0.54% and 0.46% and 0.23% | WBC Differential Counting(%) Baso [4]: 0.3% and 0.4% and 2.6% | WBC Differential Counting(%) Eos [4]: 3.9% and 7.5% and 3.8% | WBC Differential Counting(%) Lymph [4]: 23.4% and 27.1% and 39.5% | WBC Differential Counting(%) Mono [4]: 7.8% (2×) and 6.1% | WBC Differential Counting(%) Neut [4]: 64.3% and 56.8% and 46.8% | HCT [5]: 47.7% and 44.4% and 48.4% | HGB [5]: 16.1 g/dL and 14.9 g/dL and 16.2 g/dL | MCH [5]: 22.9 pg and 23.2 pg and 22.2 pg | MCHC [5]: 33.7 g/dL and 33.5 g/dL | MCV [5]: 68 fL and 69.2 fL and 66.3 fL | Retic [5]: 1.79% and 1.14% and 0.92% | WBC Differential Counting Baso [5]: 0.5% and 0.7% and 0.9% | WBC Differential Counting Eos [5]: 3.8% and 3.2% and 2.1% | WBC Differential Counting Lymph [5]: 30.9% and 31.1% and 43.6% | WBC Differential Counting Mono [5]: 4.6% and 4.0% and 5.5% | WBC Differential Counting Neut [5]: 59.3% and 60.5% and 47.3% | HCT [6]: 39.40% | HGB [6]: 13.17 g/dL | MCH [6]: 18.4 pg | MCHC [6]: 25.57 g/dL | MCV [6]: 55.4 fL | Retic [6]: 0.77% | WBC Differential Counting Baso [6]: 0.74% | WBC Differential Counting Eos [6]: 3.70% | WBC Differential Counting Lymph [6]: 28.17% | WBC Differential Counting Mono [6]: 4.91% | WBC Differential Counting Neut [6]: 46.85% | HCT [7]: 45.1% and 46.8% and 43.2% | HGB [7]: 15.0 g/dL and 15.6 g/dL and 14.5 g/dL | MCH [7]: 22.4 pg and 22.5 pg and 21.7 pg | MCHC [7]: 33.2 g/dL and 33.3 g/dL and 33.6 g/dL | MCV [7]: 67.6 fL and 67.4 fL and 64.7 fL | Retic [7]: 0.51% and 0.65% and 0.56% | WBC Differential Counting Baso [7]: 0.8% and 0.4% and 0.7% | WBC Differential Counting Eos [7]: 3.5% and 3.9% and 4.8% | WBC Differential Counting Lymph [7]: 34.8% and 31.7% and 35.5% | WBC Differential Counting Mono [7]: 6.5% and 7.8% and 4.5% | WBC Differential Counting Neut [7]: 53.8% and 55.9% and 54.0% | HCT [8]: 39.19% | HGB [8]: 13.07 g/dL | MCH [8]: 18.2 pg | MCHC [8]: 27.30 g/dL | MCV [8]: 54.9 fL | Retic [8]: 0.74% | WBC Differential Counting Baso [8]: 0.78% | WBC Differential Counting Eos [8]: 3.68% | WBC Differential Counting Lymph [8]: 28.23% | WBC Differential Counting Mono [8]: 5.10% | WBC Differential Counting Neut [8]: 46.56% | HCT [9]: 41.40% | HGB [9]: 14.00 g/dL | MCH [9]: 23.3 pg | MCHC [9]: 33.83 g/dL | MCV [9]: 68.8 fL | Retic [9]: 0.36% | WBC Differential Counting(%) Baso [9]: 0.40% | WBC Differential Counting(%) Eos [9]: 2.07% | WBC Differential Counting(%) Lymph [9]: 36.50% | WBC Differential Counting(%) Mono [9]: 4.57% | WBC Differential Counting(%) Neut [9]: 55.93% | HCT [10]: 39.9% (2×) and 44.4% | HGB [10]: 13.4 g/dL and 13.6 g/dL and 15.0 g/dL | MCHC [10]: 33.5 g/dL and 34.2 g/dL and 33.8 g/dL | MCV [10]: 69.5 fL and 68.2 fL and 68.7 fL | Retic [10]: 0.53% and 0.27% and 0.28% | WBC Differential Counting(%) Baso [10]: 0.4% and 0.5% and 0.3% | WBC Differential Counting(%) Eos [10]: 3.1% and 0.8% and 2.3% | WBC Differential Counting(%) Lymph [10]: 31.4% and 42.6% and 35.8% | WBC Differential Counting(%) Mono [10]: 3.9% (2×) and 5.9% | WBC Differential Counting(%) Neut [10]: 60.7% and 51.8% and 55.3% | HCT [11]: 46.33% | HGB [11]: 15.80 g/dL | MCH [11]: 23.4 pg | MCHC [11]: 34.07 g/dL | MCV [11]: 68.6 fL | Retic [11]: 0.31% | WBC Differential Counting(%) Baso [11]: 0.43% | WBC Differential Counting(%) Eos [11]: 4.73% | WBC Differential Counting(%) Lymph [11]: 32.17% | WBC Differential Counting(%) Mono [11]: 6.07% | WBC Differential Counting(%) Neut [11]: 56.33% | HCT [12]: 43.1% and 47.6% and 48.3% | HGB [12]: 14.4 g/dL and 16.9 g/dL and 16.1 g/dL | MCH [12]: 23.3 pg and 24.5 pg and 22.3 pg | MCHC [12]: 33.3 g/dL and 35.5 g/dL and 33.4 g/dL | MCV [12]: 70 fL and 69.1 fL and 66.8 fL | Retic [12]: 0.27% and 0.32% and 0.33% | WBC Differential Counting(%) Baso [12]: 0.5% and 0.4% (2×) | WBC Differential Counting(%) Eos [12]: 4.0% and 4.4% and 5.8% | WBC Differential Counting(%) Lymph [12]: 33.7% and 29.5% and 33.2% | WBC Differential Counting(%) Mono [12]: 5.8% and 6.8% and 5.6% | WBC Differential Counting(%) Neut [12]: 55.7% and 58.6% and 54.7%
